Among the data in patent US8916702B2 (priority 2012, dated 2014) are EC50 values, retold here.

Molecules are shown by their SMILES. Where two headings read alike, the source gives them in different places.

The subject of this experiment is HCV pseudoparticles (genotype 1a HCV E1 and E2 envelope, H77C isolate). The experiment in a line: microbe, parasite or virus in culture. Format: cell-based. The conditions noted are these: Hepatitis C virus.
Where [1] appears, read: Huh-7, 48 h, read-out: Activity (EC50 class), HCV pseudoparticle infection of Huh7 cells, luciferase 2 days after infection, EC50 expressed as class A/B.
Where [2] appears, read: Huh-7, 48 h, HCV pseudoparticle infection of Huh7 cells, luciferase 2 days after infection, average of duplicates.
Where [3] appears, read: Huh-7, read-out: Activity (EC50 class), HCV pseudoparticles (genotype 1a, H77C) in Huh7 cells, EC50 expressed as class A/B.
Setting [4] is: Huh-7, 48 h, read-out: Activity (EC50 class), HCV pseudoparticles, Huh7 cells, luciferase 2 days after infection, average of duplicates.
The mark [5] stands for this setting: Huh-7, 48 h, HCV pseudoparticles, Huh7 cells, luciferase 2 days after infection, average of duplicates.

Regarding `COC(=O)[C@H](CCNC(=O)C(=O)Nc1cccc(C(F)(F)F)c1)NC(=O)c1ccc(Nc2nc(NC3(c4ccc(Cl)cc4)CC3)nc(OCC(F)(F)F)n2)cc1` [Compound 1229], the EC50 under setting [1] lay in the range of 0.01 to 10 nM.
Take `COC(=O)[C@H](CNC(=O)C(=O)NCc1c(F)cccc1F)NC(=O)c1ccc(Nc2nc(NC3(c4ccc(Cl)cc4)CC3)nc(OCC(F)(F)F)n2)cc1` [Compound 1135]: the response under setting [2] was half-maximal at 1.92 nM (EC50) and the EC50 under setting [1] fell in the range of 0.01 to 10 nM.
For `CC(CNC(=O)C(=O)Nc1ccc(F)cc1F)CNC(=O)c1ccc(Nc2nc(NC3(c4ccc(Cl)cc4)CC3)nc(OCC(F)(F)F)n2)cc1` (centres unmarked) [Compound 3473], the EC50 under setting [3] lay within 0.01 to 10 nM.
`COC(=O)[C@H](CNC(=O)C(=O)Nc1ccc(Oc2ccccc2)nc1)NC(=O)c1ccc(Nc2nc(NC3(c4ccc(Cl)cc4)CC3)nc(OCC(F)(F)F)n2)cc1` [Compound 3715]: under setting [4], the EC50 is 0.01 to 10 nM.
Turning to `COC(=O)[C@@H](CCNC(=O)C(=O)Nc1cccc(Oc2ccccc2)c1)NC(=O)c1ccc(Nc2nc(NC3(c4ccc(Cl)cc4)CC3)nc(OCC(F)(F)F)n2)cc1` [Compound 3578], the EC50 under setting [3] was in the range of 0.01 to 10 nM.
Regarding `Cn1ccc(NC(=O)C(=O)NCC[C@H](NC(=O)c2ccc(Nc3nc(NC4(c5ccc(Cl)cc5)CC4)nc(OCC(F)(F)F)n3)cc2)C(=O)O)n1` [Compound 1263], the EC50 under setting [1] lay in the range of 0.01 to 10 nM.
On to `O=C(Nc1ccc(F)cc1F)C(=O)N(CCO)CCCNC(=O)c1ccc(Nc2nc(NC3(c4ccc(Cl)cc4)CC3)nc(OCC(F)(F)F)n2)cc1` [Compound 3503], for which the EC50 under setting [3] was in the range of 0.01 to 10 nM.
On to `CC(C)(CNC(=O)C(=O)Nc1ccc(F)cc1C(F)(F)F)CNC(=O)c1ccc(Nc2nc(NC3(c4ccc(Cl)cc4)CC3)nc(OCC(F)(F)F)n2)cc1` [Compound 3457], for which the EC50 under setting [3] lay within 0.01 to 10 nM.
With `CC1(C)[C@H]2C[C@@]1(C)CCC2CNC(=O)C(=O)NCC[C@H](NC(=O)c1ccc(Nc2nc(NC3(c4ccc(Cl)cc4)CC3)nc(OCC(F)(F)F)n2)cc1)C(=O)O` (some centres unmarked) [Compound 1211], the EC50 was 0.13 nM under setting [2] and 0.01 to 10 nM under setting [1].
`CC(C)(CNC(=O)C(=O)Nc1ccc(Cl)c(F)c1)CNC(=O)c1ccc(Nc2nc(NC3(c4ccc(Cl)cc4)CC3)nc(OCC(F)(F)F)n2)cc1` [Compound 3071]: the EC50 under setting [3] fell in the range of 0.01 to 10 nM.
The same measure, in the same setting: then `COC(=O)/C(CCNC(=O)C(=O)Nc1cccc(S(=O)(=O)C(F)(F)F)c1)=N\C(=O)c1ccc(Nc2nc(NC3(c4ccc(Cl)cc4)CC3)nc(OCC(F)(F)F)n2)cc1` [Compound 3589], with 0.01 to 10 nM.
For `COC(=O)[C@H](CNC(=O)C(=O)NCc1cccc(F)c1F)NC(=O)c1ccc(Nc2nc(NC3(c4ccc(Cl)cc4)CC3)nc(OCC(F)(F)F)n2)cc1` [Compound 1148], under setting [1], the EC50 lay in the range of 0.01 to 10 nM.
In the case of `CC(C)(CNC(=O)C(=O)Nc1ccccc1C#N)CNC(=O)c1ccc(Nc2nc(NC3(c4ccc(Cl)cc4)CC3)nc(OCC(F)(F)F)n2)cc1` [Compound 3385], under setting [3], the EC50 was 0.01 to 10 nM.
Regarding `COC(=O)[C@H](CCNC(=O)C(=O)Nc1ccc(C(=O)N2CCOCC2)cc1)NC(=O)c1ccc(Nc2nc(NC3(c4ccc(Cl)cc4)CC3)nc(OCC(F)(F)F)n2)cc1` [Compound 3128], under setting [3], the EC50 was in the range of 0.01 to 10 nM.
`COC(=O)C(CNC(=O)C(=O)NC1CCN(C(=O)OC(C)(C)C)CC1)NC(=O)c1ccc(Nc2nc(NC3(c4ccc(Cl)cc4)CC3)nc(OCC(F)(F)F)n2)cc1` (centres unmarked) [Compound 1049]: the concentration giving a half-maximal response (EC50) under setting [1] was in the range of 0.01 to 10 nM.
Regarding `COC(=O)[C@H](CNC(=O)C(=O)Nc1cccc(CN2CCCC2)c1)NC(=O)c1ccc(Nc2nc(NC3(c4ccc(Cl)cc4)CC3)nc(OCC(F)(F)F)n2)cc1` [Compound 3723], the EC50 is, setting by setting: under setting [5], 1.34 nM; under setting [4], 0.01 to 10 nM.
As to `CC(C)(CNC(=O)C(=O)Nc1ccc(C[Si](C)(C)C)cc1)CNC(=O)c1ccc(Nc2nc(NC3(c4ccc(Cl)cc4)CC3)nc(OCC(F)(F)F)n2)cc1` [Compound 3054], under setting [3], the EC50 was 0.01 to 10 nM.
Consider `O=C(NCC[C@H](NC(=O)c1ccc(Nc2nc(NC3(c4ccc(Cl)cc4)CC3)nc(OCC(F)(F)F)n2)cc1)C(=O)O)C(=O)NCC1(C(=O)O)CC1` [Compound 1447], for which the EC50 under setting [2] came to 97.7 nM and the EC50 under setting [1] is 10 to 1000 nM.
For `O=C(NCC[C@H](NC(=O)c1ccc(Nc2nc(NC3(c4ccc(Cl)cc4)CC3)nc(OCC(F)(F)F)n2)cc1)C(=O)O)C(=O)NC1CCCC(O)C1` (some centres unmarked) [Compound 1112] the same measures were 1.23 nM and 0.01 to 10 nM.
As to `Cc1ccc(NC(=O)C(=O)N(CCO)CCCNC(=O)c2ccc(Nc3nc(NC4(c5ccc(Cl)cc5)CC4)nc(OCC(F)(F)F)n3)cc2)cc1` [Compound 3501], the EC50 under setting [3] is 0.01 to 10 nM.
On the same count and under the same terms, under `CC(C)(CNC(=O)C(=O)NS(=O)(=O)C1CC1)CNC(=O)c1ccc(Nc2nc(NC3(c4ccc(Cl)cc4)CC3)nc(OCC(F)(F)F)n2)cc1` [Compound 3032] stands 0.01 to 10 nM; under `CC(C)(CNC(=O)C(N)=O)CNC(=O)c1ccc(Nc2nc(NC3(c4ccc(F)cc4)CC3)nc(OCC(F)(F)F)n2)cc1` [Compound 3247], 0.01 to 10 nM.
Same read-out and setting: under `COC(=O)/C(CCNC(=O)C(=O)Nc1ccc(N2CCOCC2)nc1)=N\C(=O)c1ccc(Nc2nc(NC3(c4ccc(Cl)cc4)CC3)nc(OCC(F)(F)F)n2)cc1` [Compound 3585] stands 0.01 to 10 nM.
As to `COC(=O)[C@H](CCNC(=O)C(=O)Nc1ccc(-c2ccccc2)cc1)NC(=O)c1ccc(Nc2nc(NC3(c4ccc(Cl)cc4)CC3)nc(OCC(F)(F)F)n2)cc1` [Compound 1524], under setting [1], the EC50 fell in the range of 0.01 to 10 nM.
On the same count and under the same terms, under `CN1CCCC1CCNC(=O)C(=O)NC[C@H](NC(=O)c1ccc(Nc2nc(NC3(c4ccc(Cl)cc4)CC3)nc(OCC(F)(F)F)n2)cc1)C(=O)O` (some centres unmarked) [Compound 1040] stands 10 to 1000 nM.
The same measure, in the same setting: under `COC(=O)[C@H](CNC(=O)C(=O)N[C@H]1C[C@H]2C3C2[C@]31C)NC(=O)c1ccc(Nc2nc(NC3(c4ccc(Cl)cc4)CC3)nc(OCC(F)(F)F)n2)cc1` (some centres unmarked) [Compound 1054] stands 0.01 to 10 nM.
Same read-out and setting: then `COC(=O)[C@H](CCNC(=O)C(=O)NCCc1cccc(OC)c1)NC(=O)c1ccc(Nc2nc(NC3(c4ccc(Cl)cc4)CC3)nc(OCC(F)(F)F)n2)cc1` [Compound 1309], with 0.01 to 10 nM.
Regarding `CC(C)(CNC(=O)C(=O)Oc1cncs1)CNC(=O)c1ccc(Nc2nc(NC3(c4ccc(Cl)cc4)CC3)nc(OCC(F)(F)F)n2)cc1` [Compound 3179], under setting [3], the EC50 is 0.01 to 10 nM.
The same measure, in the same setting: under `CC(C)(CNC(=O)C(=O)Nc1ccccn1)CNC(=O)c1ccc(Nc2nc(NC3(c4ccc(Cl)cc4)CC3)nc(OCC(F)(F)F)n2)cc1` [Compound 3248] stands 0.01 to 10 nM.
For `O=C(NCC[C@H](NC(=O)c1ccc(Nc2nc(NC3(c4ccc(Cl)cc4)CC3)nc(OCC(F)(F)F)n2)cc1)C(=O)O)C(=O)Nc1ccccn1` [Compound 1279], the EC50 runs as follows: under setting [2], 1.29 nM; under setting [1], 0.01 to 10 nM.
The matching figures for `O=C(NC[C@H](NC(=O)c1ccc(Nc2nc(NC3(c4ccc(Cl)cc4)CC3)nc(OCC(F)(F)F)n2)cc1)C(=O)O)C(=O)Nc1cc[nH]n1` [Compound 1353]: 1.66 nM and 0.01 to 10 nM.
Take `COCC1(CNC(=O)C(=O)NCC[C@@H](NC(=O)c2ccc(Nc3nc(NC4(c5ccc(Cl)cc5)CC4)nc(OCC(F)(F)F)n3)cc2)C(=O)O)CC1` [Compound 1419]: the EC50 under setting [1] fell in the range of 0.01 to 10 nM.
As to `COC(=O)[C@H](CNC(=O)C(=O)Nc1ccc(-c2ccccc2)cc1)NC(=O)c1ccc(Nc2nc(NC3(c4ccc(Cl)cc4)CC3)nc(OCC(F)(F)F)n2)cc1` [Compound 3083], the EC50 under setting [3] was in the range of 0.01 to 10 nM.
Consider `Cc1ccc(C2CC2CNC(=O)C(=O)NCC[C@H](NC(=O)c2ccc(Nc3nc(NC4(c5ccc(Cl)cc5)CC4)nc(OCC(F)(F)F)n3)cc2)C(=O)O)cc1` (some centres unmarked) [Compound 1444], for which the EC50 under setting [1] lay in the range of 0.01 to 10 nM.
With `Cc1ccc(NC(=O)C(=O)N2CCCC(CNC(=O)c3ccc(Nc4nc(NC5(c6ccc(Cl)cc6)CC5)nc(OCC(F)(F)F)n4)cc3)C2)cc1` (centres unmarked) [Compound 3481], it took 0.065 nM to reach a half-maximal effect (Huh-7, 48 h, HCV pseudoparticles (genotype 1a, H77C) in Huh7 cells, average of duplicate, luciferase 2 days after infection) (EC50) and the EC50 under setting [3] lay in the range of 0.01 to 10 nM.
`COC(=O)[C@H](CCNC(=O)C(=O)Nc1cc(F)c(F)c(F)c1)NC(=O)c1ccc(Nc2nc(NC3(c4ccc(Cl)cc4)CC3)nc(OCC(F)(F)F)n2)cc1` [Compound 1504]: the EC50 under setting [2] is less than 2.54 nM and the EC50 under setting [1] was in the range of 0.01 to 10 nM.
`CC1CCC(NC(=O)C(=O)NC[C@H](NC(=O)c2ccc(Nc3nc(NC4(c5ccc(Cl)cc5)CC4)nc(OCC(F)(F)F)n3)cc2)C(=O)O)CC1` (some centres unmarked) [Compound 1092]: the EC50 under setting [1] lay within 0.01 to 10 nM.
As for `Cc1nnc(-c2ccc(NC(=O)C(=O)NCC(C)(C)CNC(=O)c3ccc(Nc4nc(NC5(c6ccc(Cl)cc6)CC5)nc(OCC(F)(F)F)n4)cc3)cc2)[nH]1` [Compound 3674], the concentration for a half-maximal effect (EC50) is 0.15 nM under setting [5] and 0.01 to 10 nM under setting [4].
For `CC(C)(CNC(=O)C(=O)Nc1cccnc1-c1ccccc1)CNC(=O)c1ccc(Nc2nc(NC3(c4ccc(Cl)cc4)CC3)nc(OCC(F)(F)F)n2)cc1` [Compound 3258], under setting [3], the EC50 is 0.01 to 10 nM.
For `COC(=O)[C@H](CNC(=O)C(=O)Nc1ccc(Cn2cccn2)cc1)NC(=O)c1ccc(Nc2nc(NC3(c4ccc(Cl)cc4)CC3)nc(OCC(F)(F)F)n2)cc1` [Compound 3195], under setting [3], the EC50 lay within 0.01 to 10 nM.
Regarding `O=C(NC[C@H](NC(=O)c1ccc(Nc2nc(NC3(c4ccc(Cl)cc4)CC3)nc(OCC(F)(F)F)n2)cc1)C(=O)Cl)C(=O)Nc1cccc(Oc2ccccn2)c1` [Compound 3781], the half-maximal effective concentration (EC50) under setting [4] was in the range of 0.01 to 10 nM.
With `O=C(NCC[C@H](NC(=O)c1ccc(Nc2nc(NC3(c4ccc(Cl)cc4)CC3)nc(OCC(F)(F)F)n2)cc1)C(=O)O)C(=O)Nc1cccc(F)c1` [Compound 1269], the EC50 under setting [1] lay within 0.01 to 10 nM.
As to `Cc1ccc(NC(=O)C(=O)NCC(O)CNC(=O)c2ccc(Nc3nc(NC4(c5ccc(Cl)cc5)CC4)nc(OCC(F)(F)F)n3)cc2)cc1` (centres unmarked) [Compound 3367], the EC50 under setting [3] fell in the range of 0.01 to 10 nM.

By EC50 is commonly meant the concentration that produces a half-maximal response.
